Measured values taken from patent publication US20140315876A1, “BETA-LACTAMASE INHIBITORS” (priority 2013, published 2014).
Counter-ions that a name gives are not always drawn.

What was measured:
[1] = system: bacterial strains that express KPC β-lactamases; test: Synergy MIC / standard BLI potentiation MIC assay, strains expressing KPC β-lactamases; assay type: cell-based; details: more active for at least one KPC strain and/or better spectrum of activity than Avibactam; in the presence of a β-lactam
How it was run: (§1)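 Broth microdilution in CAMHB per CLSI, ~10^5 CFU/mL, 18-20 h at 37° C; MIC is lowest concentration with no visible turbidity. Potentiation: β-lactam 128-0.13 μg/mL with BLI fixed at 4 μg/mL. Synergy: BLI serially diluted with β-lactam fixed. Engineered E. coli kept on 25 μg/mL tetracycline.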

[2] = system: bacterial strains that express the class D cephalosporinase OXA-15; test: Synergy MIC / standard BLI potentiation MIC assay, strains expressing OXA-15; assay type: cell-based, E. coli; details: in the presence of a β-lactam; comparator Avibactam (comparator compound CCC)
How it was run: as §1

Structure (SMILES): C[n+]1ccc(-c2nnc([C@@H]3CC[C@@H]4CN3C(=O)N4OS(=O)(=O)[O-])o2)cc1 [Compound 782, (2S,5R)-2-(5-(1-methylpyridin-1-ium-4-yl)-1,3,4-oxadiazol-2-yl)-7-oxo-1,6-diazabicyclo[3.2.1]octan-6-yl sulfate]
- activity and/or spectrum of activity against bacterial strains that express KPC β-lactamases, compared with Avibactam [1]: more active than Avibactam
- activity against bacterial strains that express the class D cephalosporinase OXA-15, compared with Avibactam [2]: more active than Avibactam

Structure (SMILES): N[C@H]1C[C@H](c2nnc([C@@H]3CC[C@@H]4CN3C(=O)N4OS(=O)(=O)O)s2)C1 [Compound 783, (2S,5R)-2-(5-((1r,3S)-3-aminocyclobutyl)-1,3,4-thiadiazol-2-yl)-7-oxo-1,6-diazabicyclo[3.2.1]octan-6-yl hydrogen sulfate]
- activity and/or spectrum of activity against bacterial strains that express KPC β-lactamases, compared with Avibactam [1]: more active than Avibactam
- activity against bacterial strains that express the class D cephalosporinase OXA-15, compared with Avibactam [2]: more active than Avibactam

Structure (SMILES): N=C(N)N[C@H]1C[C@@H](c2nnc([C@@H]3CC[C@@H]4CN3C(=O)N4OS(=O)(=O)O)s2)C1 [Compound 784, (2S,5R)-2-(5-((1s,3R)-3-guanidinocyclobutyl)-1,3,4-thiadiazol-2-yl)-7-oxo-1,6-diazabicyclo[3.2.1]octan-6-yl hydrogen sulfate]
- activity and/or spectrum of activity against bacterial strains that express KPC β-lactamases, compared with Avibactam [1]: more active than Avibactam
- activity against bacterial strains that express the class D cephalosporinase OXA-15, compared with Avibactam [2]: more active than Avibactam

Structure (SMILES): N=C(N)NCCc1nnc([C@@H]2CC[C@@H]3CN2C(=O)N3OS(=O)(=O)O)s1 [Compound 794, (2S,5R)-2-(5-(2-guanidinoethyl)-1,3,4-thiadiazol-2-yl)-7-oxo-1,6-diazabicyclo[3.2.1]octan-6-yl hydrogen sulfate]
- activity and/or spectrum of activity against bacterial strains that express KPC β-lactamases, compared with Avibactam [1]: more active than Avibactam
- activity against bacterial strains that express the class D cephalosporinase OXA-15, compared with Avibactam [2]: more active than Avibactam

Structure (SMILES): N[C@H]1C[C@@H](c2nnc([C@@H]3CC[C@@H]4CN3C(=O)N4OS(=O)(=O)O)s2)C1 [Compound 795, (2S,5R)-2-(5-((1s,3R)-3-aminocyclobutyl)-1,3,4-thiadiazol-2-yl)-7-oxo-1,6-diazabicyclo[3.2.1]octan-6-yl hydrogen sulfate]
- activity and/or spectrum of activity against bacterial strains that express KPC β-lactamases, compared with Avibactam [1]: more active than Avibactam
- activity against bacterial strains that express the class D cephalosporinase OXA-15, compared with Avibactam [2]: more active than Avibactam
